Source: patent US9737540B2, “Combination treatment of cancer” (ASTRAZENECA AB, priority 2011, dated 2017)
Like-named read-outs stand apart in the source and are kept apart here.

Columns and labels:
[1] = tested on: VCAP prostate tumour cell line; test: Proliferation assay, Sytox Green endpoint, live cell number after 5 days (VCAP); type: cell-based; details: VCAP cells; monotherapy or with MDV-3100 0.1 μM to 10 μM; n=3
Experimental: (§1) The LNCaP and VCAP prostate tumour cell lines (American Tissue Culture Collection) were routinely cultured in RMPI supplemented with 10% FCS and 2 mM L-glutamine. To determine the effect of AZD5363 and MDV-3100, either as a monotherapy or in combination, on cell growth, a proliferation assay was performed using the Sytox Green endpoint to measure live cell number after 5 days. […] Cells were then dosed with increasing concentrations of AZD5363 (0.01-1 μM), MDV-3100 (0.1-10 μM) or a combination of each agent in a 6×6 matrix format. After 5-day exposure to compound, Sytox Green nucleic acid dye (Invitrogen) diluted in TBS-EDTA (TBS=Tris-buffered saline, EDTA=ethylenediaminetetraacetic acid) buffer was added to cells at a final concentration of […] and the number of dead cells detected using an Acumen Explorer. Cells were then permeabilised by the addition of saponin (0.03% final concentration, diluted in TBS-EDTA buffer), incubated overnight and a total cell count measured. The live cell count was then determined by subtracting the number of dead cells per well from the total number of cells. […] The data is presented as % growth using the NCI formulae as follows: [(Ti-Tz)/(C-Tz)]×100 for concentrations for which Ti>/=Tz [(Ti-Tz)/Tz]×100 for concentrations for which Ti<Tz. […] Synergism of the drug combination was evaluated using a unified approach described by C. […]

[2] = tested on: LNCaP prostate cancer cells (PTEN null, androgen receptor positive); type: in vivo; details: castrated mice
[3] = tested on: LNCaP prostate tumour cell line; test: Proliferation assay, Sytox Green endpoint, live cell number after 5 days (LNCaP); type: cell-based; details: LNCaP cells; monotherapy or with MDV-3100 0.1 μM to 10 μM; n=3
Experimental: as §1

Row | Structure (SMILES) | Effect on cell growth (mean % growth, FIG. 2) [1] | inhibition of tumour volume ([2]; AZD5363 monotherapy 100 mg/kg bd, 5 days on, 2 days off) [%] | Effect on cell growth / cell death (mean % growth, FIG. 1) [3] | inhibition of tumour volume ([2]; bicalutamide monotherapy 50 mg/kg qd) [%]
1 | NC1(C(=O)N[C@@H](CCO)c2ccc(Cl)cc2)CCN(c2ncnc3[nH]ccc23)CC1 [AZD5363, (S)-4-amino-N-(1-(4-chlorophenyl)-3-hydroxypropyl)-1-(7H-pyrrolo[2,3-d]pyrimidin-4-yl)piperidine-4-carboxamide] | can inhibit the growth of VCAP cells as a monotherapy | 56 | can inhibit the growth of LNCaP cells and induce cell death as a monotherapy | 
2 | CC(O)(CS(=O)(=O)c1ccc(F)cc1)C(=O)Nc1ccc(C#N)c(C(F)(F)F)c1 (stereo not shown) [bicalutamide, N-[4-cyano-3-(trifluoromethyl)-phenyl]-3-[(4-fluorophenyl)-sulfonyl]-2-hydroxy-2-methylpropanamide, reference compound] |  |  |  | 42
